Data: paper PMC12016938, “A small molecule PKCε inhibitor reduces hyperalgesia induced by paclitaxel or opioid withdrawal” (JCI Insight, 2025)
Several values for one entry are separate records, joined by “and”; a condition that tells them apart may be missing. Equal entries are not always repeated. Where two headings read alike, the source gives them in different places.

Assay: Pharmacokinetic studies in rats (plasma and brain)
Type: in vivo
Conditions: for Kp at 2 h / Kp at 24 h / concentration at 2 h / concentration at 24 h / Plasma concentration / Brain/Plasma / Plasma 2h/24h: rat; for concentration at 2 h / concentration at 24 h: read-out: Brain concentration
Description: Because binding to plasma protein was approximately 90%, we predicted that the free concentration at each time point was 10 times lower than the measured plasma concentration.
Pharmacokinetic studies in rats. Pharmacokinetics studies were contracted to the Drug Metabolism and Pharmacokinetics Core at Scripps Research. CP612 was dissolved at in 10% Tween-80/90% water and administered at 40 mg/kg/5 mL. Six rats were injected i.v. and 6 were injected i.p. Three rats were used to collect a full plasma time course from 5 minutes to 24 hours after dose. Then, brains were collected from these rats at 24 hours and from 3 additional rats at 2 hours after administration of compound. One rat receiving i.p. administration of CP612 was excluded as it had low/nondetectable levels indicating missed i.p. injection in that rat. Plasma samples were diluted 10-fold in blank plasma. Each brain was disrupted in potassium phosphate buffer (pH 7.4; 9 μL per 1mg tissue) on ice using brief sonication pulses. CP612 was detected with an API Triple Quad 5500 LC-MS/MS (SCIEX) using an MRM(+) method: CP612 (463/282, m/z) with carbamazepine (238/195.1, m/z) as an internal standard.

[1] = i.p. 40 mg/kg, 2h, individual rat, 40 mg/kg
[2] = i.p. 40 mg/kg, 24h, individual rat, 40 mg/kg
[3] = i.v. 40 mg/kg, 2h, individual rat, 40 mg/kg

N[C@H](CNC(=O)C1(c2ccc(Cl)cc2)CCCC1)c1ccc(C(=O)Nc2ccncc2)cc1 [CP612]
Brain level between 2 hours and 24 hours (40 mg/kg i.p.): remained stable
Decrease of plasma level between 2 hours and 24 hours (40 mg/kg i.p.): about 30 fold
Decrease of brain level between 2 hours and 24 hours (40 mg/kg i.v.): less than 2 fold
Decrease of plasma level between 2 hours and 24 hours (40 mg/kg i.v.): about 70 fold
Predicted free concentration relative to measured plasma concentration (from approx. 90% plasma protein binding): 10 times lower
Kp at 2 h (brain, ip, 40 mg/kg, 40 mg/kg i.p., 2 hours, read-out: Brain/plasma concentration ratio): 0.03 ± 0.009
Kp at 24 h (brain, ip, 40 mg/kg, 40 mg/kg i.p., 24 hours, read-out: Brain/plasma concentration ratio): 1.18 ± 0.42
concentration at 2 h (brain, ip, 40 mg/kg, i.p. 40 mg/kg, 2h, mean all rats): 494 nM
Kp at 2 h (brain, ip, 40 mg/kg, i.p. 40 mg/kg, 2h, mean all rats, read-out: Brain/Plasma): 0.0312
concentration at 2 h (brain, ip, 40 mg/kg, i.p. 40 mg/kg, 2h, mean of Plasma 2h, Brain 2h rats): 494 nM
Kp at 2 h (brain, ip, 40 mg/kg, i.p. 40 mg/kg, 2h, mean of Plasma 2h, Brain 2h rats, read-out: Brain/Plasma): 0.0312
concentration at 24 h (brain, ip, 40 mg/kg, i.p. 40 mg/kg, 24h, individual rat): 609 nM
concentration at 24 h (brain, ip, 40 mg/kg, i.p. 40 mg/kg, 24h, mean all rats): 540 nM
Kp at 24 h (brain, ip, 40 mg/kg, i.p. 40 mg/kg, 24h, mean all rats, read-out: Brain/Plasma): 1.18
concentration at 24 h (brain, ip, 40 mg/kg, i.p. 40 mg/kg, 24h, mean of RM Plasma + Brain 24h rats): 540 nM
Kp at 24 h (brain, ip, 40 mg/kg, i.p. 40 mg/kg, 24h, mean of RM Plasma + Brain 24h rats, read-out: Brain/Plasma): 1.18
Kp at 2 h (brain, iv, 40 mg/kg, 40 mg/kg i.v., 2 hours, read-out: Brain/plasma concentration ratio): 0.16 ± 0.03
Kp at 24 h (brain, iv, 40 mg/kg, 40 mg/kg i.v., 24 hours, read-out: Brain/plasma concentration ratio): 9.17 ± 3.19
concentration at 2 h (brain, iv, 40 mg/kg, i.v. 40 mg/kg, 2h, individual rat): 2290 nM
Kp at 2 h (brain, iv, 40 mg/kg, i.v. 40 mg/kg, 2h, individual rat, read-out: Brain/Plasma): 0.15
concentration at 2 h (brain, iv, 40 mg/kg, i.v. 40 mg/kg, 2h, mean all rats): 2630 nM
Kp at 2 h (brain, iv, 40 mg/kg, i.v. 40 mg/kg, 2h, mean all rats, read-out: Brain/Plasma): 0.163
concentration at 2 h (brain, iv, 40 mg/kg, i.v. 40 mg/kg, 2h, mean of Plasma 2h, Brain 2h rats): 2630 nM
Kp at 2 h (brain, iv, 40 mg/kg, i.v. 40 mg/kg, 2h, mean of Plasma 2h, Brain 2h rats, read-out: Brain/Plasma): 0.163
concentration at 24 h (brain, iv, 40 mg/kg, i.v. 40 mg/kg, 24h, mean all rats): 1460 nM
Kp at 24 h (brain, iv, 40 mg/kg, i.v. 40 mg/kg, 24h, mean all rats, read-out: Brain/Plasma): 9.17
concentration at 24 h (brain, iv, 40 mg/kg, i.v. 40 mg/kg, 24h, mean of RM Plasma + Brain 24h rats): 1460 nM
Kp at 24 h (brain, iv, 40 mg/kg, i.v. 40 mg/kg, 24h, mean of RM Plasma + Brain 24h rats, read-out: Brain/Plasma): 9.17
Plasma concentration (i.p. 40 mg/kg, 15min, individual rat, 40 mg/kg): 21815.2 nM
Plasma concentration (i.p. 40 mg/kg, 30min, individual rat, 40 mg/kg): 20540.8 nM
Brain/Plasma [1]: 0.02 and 0.0252 and 0.05
Plasma concentration [1]: 15033 nM and 14212.3 nM and 13650.7 nM and 17581.8 nM
concentration at 2 h [1]: 280.8 nM and 343.4 nM and 857.5 nM
Plasma concentration (i.p. 40 mg/kg, 4h, individual rat, 40 mg/kg): 6479.8 nM
Plasma concentration (i.p. 40 mg/kg, 6h, individual rat, 40 mg/kg): 1874.8 nM
Plasma concentration (i.p. 40 mg/kg, 8h, individual rat, 40 mg/kg): 1974.2 nM
Brain/Plasma [2]: 1.60 and 0.76
Plasma concentration [2]: 615.6 nM
concentration at 2 h [2]: 470.9 nM
Plasma 2h/24h (i.p. 40 mg/kg, individual rat, 40 mg/kg): 37.8409 and 24.4211
Plasma 2h/24h (i.p. 40 mg/kg, mean all rats): 31.1310
Plasma 2h/24h (i.p. 40 mg/kg, mean of RM Plasma + Brain 24h rats): 31.1310
Plasma concentration (i.v. 40 mg/kg, 5min, individual rat, 40 mg/kg): 73005.3 nM and 87692.8 nM
Plasma concentration (i.v. 40 mg/kg, 15min, individual rat, 40 mg/kg): 49462.2 nM and 51406.1 nM
Plasma concentration (i.v. 40 mg/kg, 30min, individual rat, 40 mg/kg): 35638.7 nM and 16847.4 nM and 33046.8 nM
Plasma concentration (i.v. 40 mg/kg, 1h, individual rat, 40 mg/kg): 23543.1 nM and 24623.1 nM
Brain/Plasma [3]: 0.22 and 0.12
Plasma concentration [3]: 15313.8 nM and 16653 nM and 15983.4 nM and 12333.1 nM and 12074 nM
concentration at 2 h [3]: 3671.9 nM and 1922.3 nM
Plasma concentration (i.v. 40 mg/kg, 4h, individual rat, 40 mg/kg): 4017.5 nM and 4341.4 nM
Plasma concentration (i.v. 40 mg/kg, 6h, individual rat, 40 mg/kg): 1823 nM and 1159.9 nM
Plasma concentration (i.v. 40 mg/kg, 8h, individual rat, 40 mg/kg): 1546.5 nM and 1265.7 nM
